# Key:
# [1] = test system: non-phosphorylated β-catenin; assay: Western blot of non-phosphorylated β-catenin content in HepG2 cells; format: cell-based; details: overnight, read-out: Non-phosphorylated β-catenin content inhibition IC50
# Source text: The Wnt signaling pathway is a key pathway for abnormal tumor growth. In colon cancer, liver cancer, pancreatic cancer and other cancers, a large number of patients have abnormal activation of the Wnt signaling pathway. The Wnt signaling pathway depends on the fine balance of β-catenin protein level. When Wnt signaling is not activated, β-catenin is phosphorylated by CK1 and APC/Axin/GSK-3β complexes, and the β-catenin protein is kept at a low level through ubiquitin-dependent proteasome degradation. When the Wnt signaling pathway is activated, β-catenin maintains a stable state of non-phosphorylation, and non-phosphorylated β-catenin can be transported into the nucleus through Rac1 and other factors, and plays a transcriptional regulatory role by binding to LEF/TCF transcription factors in the nucleus, activates downstream target genes such as C-myc and Cyclin D1, and promotes cell proliferation. Therefore, abnormal activation of the Wnt signaling pathway in tumor cells will lead to abnormal proliferation of tumors. […]
# Add 500 μL of the compound with the highest concentration shown in FIG. 1 to each well of the 6-well cell culture plate, and make a 10-fold gradient dilution of the compound concentration. […] Load the protein sample directly to the SDS-PAGE gel for electrophoresis separation, transfer the protein on the SDS-PAGE gel to the PVDF membrane; after the transfer was completed, the protein was blocked by Western blocking solution, then Rabbit anti-β-catenin non-phospho S37/After T41 (ab278503) was added and the protein was incubated at room temperature for one hour and washed, the content of non-phosphorylated β-catenin was detected by incubation with Goat Anti-Rabbit IgG H&L (HRP) (ab6721). […]
# Wnt pathway TCF/LEF = assay: Colo205-LUC-TCF/LEF luciferase reporter assay with or without MG132; format: cell-based; details: Colo205-LUC-TCF/LEF cells, 4 hours
# Experimental: The Colo205-LUC-TCF/LEF cell line is a reporter tool cell stably transfected with the pGL4.49-LUC2-TCF/LEF vector, and its Wnt/β-catenin pathway is continuously activated. After adding inhibitor, the expression of firefly luciferase regulated by the TCF/LEF cis-element decreased, and after adding the detection substrate, the detected light signal decreased accordingly, thus the inhibitory effect of the compound was detected.
# Add 100 μL of the compound AN10250484 at a maximum concentration of 20 μM to each well of the 96-well cell culture plate, and make a 3-fold gradient dilution of the compound concentration. Then inoculate each well with 10,000 stable Colo205-LUC-TCF/LEF cells containing 2 μM MG132 (Proteasome inhibitor) (MCE: HY-13259) or 10,000 Colo205-LUC-TCF/LEF cells containing control solvents, which were treated accordingly as positive and negative control wells. Place the cells in a 5% CO2 cell incubator and incubate at 37° C. for 4 hours. After 4 hours, remove the culture medium, add 100 μL of reagent (Promega) containing the corresponding firefly luciferase substrate to each well, and measure the luciferase reporter gene activity. Use SpectraMax to read the luminescence intensity in full-wavelength mode.
IC50 [1] [nM],"Inhibitory effect of the compound on the transcription of TCF/LEF after adding MG132 (Wnt pathway TCF/LEF; 2 μM MG132, FIG. 2)","Transcriptional activity of Wnt pathway TCF/LEF (luciferase reporter), in words (Wnt pathway TCF/LEF; control solvent, FIG. 2)",Compound
4,,,[2H]C([2H])([2H])N1c2nc(NCc3ccc(Oc4cnc(C(F)(F)F)nc4)nc3)nc3c2N(CCC3)C(=O)[C@]1(C)CO [AN10250399]
5.9,significantly reduced,inhibiting Wnt pathway TCF/LEF,Cc1nc(C(F)(F)F)ncc1Oc1ccc(CNc2nc(C)c3c(n2)N(C)[C@@H](C)C(=O)N3)cn1 [AN10250484]
